Results taken from patent publication US20240308992A1 (Biopolar Youtang(Guangdong) Pharmaceutical Co., Ltd., priority 2021, published 2024).
Structures can show the parent of a compound that is named as a salt.

Target: T1, Drak2 (Homo sapiens, UniProt O94768)
T1 sequence (O94768 1-372): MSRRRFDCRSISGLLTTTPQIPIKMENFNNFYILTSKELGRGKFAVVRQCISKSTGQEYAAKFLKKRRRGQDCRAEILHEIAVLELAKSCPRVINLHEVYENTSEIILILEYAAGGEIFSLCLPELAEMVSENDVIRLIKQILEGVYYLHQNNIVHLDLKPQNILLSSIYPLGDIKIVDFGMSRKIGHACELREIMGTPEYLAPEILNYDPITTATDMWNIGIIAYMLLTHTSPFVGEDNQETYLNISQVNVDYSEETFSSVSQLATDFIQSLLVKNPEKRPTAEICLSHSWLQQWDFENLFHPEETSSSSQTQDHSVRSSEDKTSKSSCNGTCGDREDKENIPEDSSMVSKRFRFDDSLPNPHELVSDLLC
Test: Drak2 activity test, ADP-Glo kinase assay (Promega)
Type: biochemical
Conditions: inhibition of Drak2 kinase activity, 2 h room temperature, activity range classes, read-out: IC50_Drak2

SMILES | IC50
COc1cc(-c2cncc(-c3cc(NC(=O)CC45CC(C4)C5)cs3)n2)ccc1C(=O)Nc1nnco1 [Example 204, 4-[6-(4-{[2-(bicyclo [1.1.1]penta-1-yl)acetyl]amino}thiophen-2-yl)pyrazin-2-yl]-2-methoxy-N-(1,3,4-oxadiazol-2-yl) benzamide] | 101 to 1000 nM
COc1cc(-c2cncc(-c3cc(NC(=O)CC4CCC4)cs3)n2)ccc1-c1ncc2c(n1)CCN(Cc1ccccc1)C2 [Example 208, N-(5-(6-(4-(6-benzyl-5,6,7,8-tetrahydropyrido [4,3-d]pyrimidin-2-yl)-3-methoxyphenyl)pyrazin-2-yl)thiophen-3-yl)-2-cyclobutyl Acetamide] | 101 to 1000 nM
O=C(CC1CCC1)Nc1csc(-c2cncc(-c3ccnc4[nH]ccc34)n2)c1 [Example 209, N-(5-(6-(1H-pyrrolo [2,3-b]pyridin-4-yl)pyrazin-2-yl)thiophen-3-yl)-2-cyclobutylacetamide] | 11 to 100 nM
CC(C)n1ccc2c(-c3cncc(-c4cc(NC(=O)CC5CCC5)cs4)n3)ccnc21 [Example 210, 2-Cyclobutyl-N-(5-{6-[1-(propyl-2-yl)pyrrolo [2,3-b]pyridin-4-yl]pyrazin-2-yl}thiophen-3-yl) acetamide] | 101 to 1000 nM
O=C(CC1CCC1)Nc1csc(-c2cncc(-c3ccnc4c3ccn4Cc3ccccc3)n2)c1 [Example 211, N-{5-[6-(1-benzylpyrrolo [2,3-b]pyridin-4-yl)pyrazin-2-yl]thiophen-3-yl}-2-cyclobutyl Acetamide] | 101 to 1000 nM
O=C(CC1CCC1)Nc1csc(-c2cncc(-c3ccc4cnn(C5CC5)c4c3)n2)c1 [Example 212, 2-Cyclobutyl-N-{5-[6-(1-cyclopropylindazol-6-yl)pyrazin-2-yl]thiophen-3-yl}acetamide] | 101 to 1000 nM
CC(C)n1ncc2ccc(-c3cncc(-c4cc(NC(=O)CC5CCC5)cs4)n3)cc21 [Example 213, 2-Cyclobutyl-N-(5-{6-[1-(propyl-2-yl)indazol-6-yl]pyrazin-2-yl}thiophen-3-yl) acetamide] | 101 to 1000 nM
CCCCC(=O)Nc1csc(-c2cncc(-c3ccc4c(c3)OCCN4C(=O)C3CCN(C)CC3)n2)c1 [Example 214, N-[5-(6-{4-[(1-methylhexahydropyridin-4-yl)carbonyl]-3,4-dihydro-2H-benzo [2,1-b] [1,4]oxazinan-7-yl}pyrazine-2-y)thiophene-3-yl] pentanamide] | 11 to 100 nM
O=C(CC1CCC1)Nc1csc(-c2cncc(-c3ccnc4c3ccn4CC(F)(F)F)n2)c1 [Example 215, 2-Cyclobutyl-N-(5-{6-[1-(2,2,2-trifluoroethyl)pyrrolo [2,3-b]pyridin-4-yl]pyrazin-2-yl}thiophen-3-yl) acetamide] | 101 to 1000 nM
CCCCC(=O)Nc1csc(-c2cncc(-c3cn(C)nc3C)n2)c1 [Example 216, N-{5-[6-(1,3-dimethylpyrazol-4-yl)pyrazin-2-yl]thiophen-3-yl}pentanamide] | < 10 nM
CCCCC(=O)Nc1csc(-c2cncc(-c3cncs3)n2)c1 [Example 217, N-{5-[6-(1,3-thiazole-5-yl)pyrazin-2-yl]thiophen-3-yl} pentanamide] | 11 to 100 nM
CCCCC(=O)Nc1csc(-c2cncc(-c3ccc(CCO)s3)n2)c1 [Example 218, N-(5-{6-[5-(2-hydroxyethyl)thiophen-2-yl]pyrazin 2-yl}thiophen-3-yl) pentanamide] | 11 to 100 nM
CCCCC(=O)Nc1csc(-c2cncc(-c3cccs3)n2)c1 [Example 219, N-{5-[6-(thiophen-2-yl)pyrazin-2-yl]thiophen-3-yl}pentanamide] | 11 to 100 nM
CCCCC(=O)Nc1csc(-c2cncc(-c3ccco3)n2)c1 [Example 220, N-{5-[6-(furyl-2-yl)pyrazin-2-yl]thiophen-3-yl}pentanamide] | 101 to 1000 nM
CCCCC(=O)Nc1csc(-c2cncc(-c3ccc(OC)c(S(C)(=O)=O)c3)n2)c1 [Example 221] | 101 to 1000 nM
CCCCC(=O)Nc1csc(-c2cncc(-c3ccc(C(=O)OC)s3)n2)c1 [Example 222, methyl 5-(6-(4-pentamidothiophen-2-yl)pyrazin-2-yl) thiophen-2-carboxylate] | 101 to 1000 nM
COc1cc(-c2cncc(-c3nc(NC(=O)CC4CCC4)cs3)n2)ccc1C(=O)N(C)C1CCN(C)CC1 [Example 223, 4-(6-{4-[(2-cyclobutylacetyl)amino]-1,3-thiazole-2-yl}pyrazin-2-yl)-2-methoxy-N-methyl-N-(1-methylhexahydropyridin-4-yl) benzamide] | 101 to 1000 nM
Cn1ccc2c(-c3cncc(-c4cc(NC(=O)CC5CCC5)cs4)n3)ccnc21 [Example 224] | 101 to 1000 nM

Next, values leading:

IC50 | SMILES
11 to 100 nM | COc1cc(-c2cncc(-c3cc(NC(=O)C(C)(C)C4CC(F)(F)C4)cs3)n2)ccc1C(=O)N(C)C1CC2(C1)CN(C)C2 (stereo not shown) [Example 203, 4-[6-(4-{[2-(3,3-difluorocyclobutyl)-2-methylpropionyl]amino}thiophen-2-yl)pyrazin-2-yl]-2-methoxy-N-methyl-N-(2-methyl-2-azaspiro [3.3]hept-6-yl) benzamide]
11 to 100 nM | COc1cc(-c2cncc(-c3cc(NC(=O)CC4CC(O)C4)cs3)n2)ccc1C(=O)N(C)C1CC2(C1)CN(C)C2 (stereo not shown) [Example 205, 4-(6-(4-(2-(3-hydroxycyclobutyl)acetylamino)thiophen-2-yl)pyrazin-2-yl)-2-methoxy-N-methyl-N-(2-methyl-2-azaspiro [3.3]heptane-6-yl) benzamide]
11 to 100 nM | COc1cc(-c2cncc(-c3cc(NC(=O)CC4CC(OC)C4)cs3)n2)ccc1C(=O)N(C)C1CC2(C1)CN(C)C2 (stereo not shown) [Example 206, 2-Methoxy-4-(6-(4-(2-(3-methoxycyclobutyl)acetylamino)thiophen-2-yl)pyrazin-2-yl)-N-methyl-N-(2-methyl-2-azaspiro [3.3]heptane-6-yl) benzamide]
11 to 100 nM | COc1cc(-c2cncc(-c3cc(NC(=O)CC4CC(OCc5ccccc5)C4)cs3)n2)ccc1C(=O)N(C)C1CC2(C1)CN(C)C2 (stereo not shown) [Example 207, 4-(6-(4-(2-(3-(benzyloxy)cyclobutyl)acetylamino)thiophen-2-yl)pyrazin-2-yl)-2-methoxy-N-methyl-N-(2-methyl-2-azaspiro [3.3]heptane-6-yl) benzamide]
101 to 1000 nM | CCCCC(=O)Nc1csc(-c2cncc(-c3ccc(OC)c(OC)c3)n2)c1 [Example A1, N-(5-(6-(3,4-dimethoxyphenyl)pyrazin-2-yl)thiophen-3-yl)pentanamide]
1000 to 10000 nM | COc1ccc(-c2cncc(-c3cc(N)cs3)n2)cc1OC [Example A2, 5-(6-(3,4-dimethoxyphenyl)pyrazin-2-yl)thiophen-3-amine hydrochloride]
101 to 1000 nM | COc1ccc(-c2cncc(-c3cc(NC(C)=O)cs3)n2)cc1OC [Example A3, N-(5-(6-(3,4-dimethoxyphenyl)pyrazin-2-yl)thiophen-3-yl)acetamide]
101 to 1000 nM | COc1ccc(-c2cncc(-c3cc(NC(=O)C(C)C)cs3)n2)cc1OC [Example A4, N-(5-(6-(3,4-dimethoxyphenyl)pyrazin-2-yl)thiophen-3-yl)isobutyramide]
101 to 1000 nM | COc1ccc(-c2cncc(-c3cc(NC(=O)C(C)(C)C)cs3)n2)cc1OC [Example A5, N-(5-(6-(3,4-dimethoxyphenyl)pyrazin-2-yl)thiophen-3-yl)pivalamide]
101 to 1000 nM | COc1ccc(-c2cncc(-c3cc(NC(=O)C4CC4)cs3)n2)cc1OC [Example A6, N-(5-(6-(3,4-dimethoxyphenyl)pyrazin-2-yl)thiophen-3-yl)cyclopropanecarboxamide]
101 to 1000 nM | COc1ccc(-c2cncc(-c3cc(NC(=O)C4CCC4)cs3)n2)cc1OC [Example A7, N-(5-(6-(3,4-dimethoxyphenyl)pyrazin-2-yl)thiophen-3-yl)cyclobutanecarboxamide]
101 to 1000 nM | COc1ccc(-c2cncc(-c3cc(NC(=O)C4CCCC4)cs3)n2)cc1OC [Example A8, N-(5-(6-(3,4-dimethoxyphenyl)pyrazin-2-yl)thiophen-3-yl)cyclopentanecarboxamide]
101 to 1000 nM | COc1ccc(-c2cncc(-c3cc(NC(=O)C4CCCCC4)cs3)n2)cc1OC [Example A9, N-(5-(6-(3,4-dimethoxyphenyl)pyrazin-2-yl)thiophen-3-yl)cyclohexanecarboxamide]
1000 to 10000 nM | COc1ccc(-c2cncc(-c3cc(NC(=O)c4ccccc4)cs3)n2)cc1OC [Example A10, N-(5-(6-(3,4-dimethoxyphenyl)pyrazin-2-yl)thiophen-3-yl)benzamide]
> 10000 nM | CCCCC(=O)Nc1csc(-c2nccc(-c3ccc(OC)c(OC)c3)n2)c1 [Example A11, N-(5-(4-(3,4-dimethoxyphenyl)pyrimidin-2-yl)thiophen-3-yl)pentanamide]
1000 to 10000 nM | CCCCC(=O)Nc1csc(-c2cncc(-c3cccc(OC)c3OC)n2)c1 [Example A12, N-(5-(6-(2,3-dimethoxyphenyl)pyrazin-2-yl)thiophen-3-yl)pentanamide]
101 to 1000 nM | CCCCC(=O)Nc1csc(-c2cncc(-c3cc(OC)ccc3OC)n2)c1 [Example A13, N-(5-(6-(2,5-dimethoxyphenyl)pyrazin-2-yl)thiophen-3-yl)pentanamide]
1000 to 10000 nM | COc1ccc(OC)c(-c2cncc(-c3cc(NC(=O)C4CCC4)cs3)n2)c1 [Example A14, N-(5-(6-(2,5-dimethoxyphenyl)pyrazin-2-yl)thiophen-3-yl)cyclobutanecarboxamide]
101 to 1000 nM | COc1cc(-c2cncc(-c3cc(NC(=O)C4CCC4)cs3)n2)ccc1Cl [Example A15, N-(5-(6-(4-chloro-3-methoxyphenyl)pyrazin-2-yl)thiophen-3-yl)cyclobutanecarboxamide]
